Laboratory results from patent US5688803A, “Tricyclic dicarbonyl derivatives” (Hoffmann-La Roche Inc., priority 1994, dated 1997).
Structures can show the parent of a compound that is named as a salt. Where two headings read alike, the source gives them in different places.

Key:
[1] = target: glutamate binding site on the kainate/AMPA receptor; test: Inhibition of [3H]-AMPA binding to the glutamate binding site on the kainate/AMPA receptor, rat brain membranes; details: 10 nM ^3 H-AMPA; membrane preparations from rat brain; unspecific binding with 1 mM glutamate; filtration
Procedure: Carefully washed membrane preparations from rat brain are used for the binding studies. The radioligands are used with concentrations of 20 nM ^3 H-DCKA and, respectively, 10 nM ^3 H-AMPA.
In order to determine the unspecific binding, the corresponding ligands with concentrations of 1 mM glycine and, respectively, 1 mM glutamate are added. Membrane-bound radioligand is separated from non-bound ligands by centrifugation (15 min, at […]; ^3 H-DCKA) or filtration (combination of Whatmann GF/C and GF/B filters; ^3 H-AMPA).
The described substances are used in the binding experiments in different concentrations.

[2] = target: T1, glycine binding site on the NMDA receptor (Rattus norvegicus, UniProt P35439); test: Inhibition of [3H]-DCKA (3H-5,7-dichlorokynurenic acid) binding to the glycine binding site on the NMDA receptor, rat brain membranes
T1 construct: membrane preparations from rat brain; from tissue; host or cells: rat brain membranes
Procedure: In order to determine the unspecific binding, the corresponding ligands with concentrations of 1 mM glycine and, respectively, 1 mM glutamate are added. Membrane-bound radioligand is separated from non-bound ligands by centrifugation (15 min, at 40 000 kg; ^3 H-DCKA) or filtration (combination of Whatmann GF/C and GF/B filters; ^3 H-AMPA).
The described substances are used in the binding experiments in different concentrations. The concentrations which inhibited 50% of the binding were determined on the basis of dosage-activity curves for the inhibition of the binding of the corresponding radioligands.

[3] = 20 nM ^3 H-DCKA, membrane preparations from rat brain, unspecific binding with 1 mM glycine, centrifugation, read-out: [^3 H]-DCKA IC50

O=c1[nH]nc2c3ccc(Cl)cc3[nH]c(=O)n12 [Example 3, 8-Chloro-2,3,5,6-tetrahydro-1,2,4-triazolo[4,3-c]quinazoline-3,5-dione]
IC50 [1]: 1750 nM
IC50 [2, 3]: 432 nM

O=c1[nH]nc2c3cc(N4CCOCC4)c([N+](=O)[O-])cc3[nH]c(=O)n12 [Example 34, 9-morpholin-4-yl-8-nitro-2,3,5,6-tetrahydro-1,2,4-triazolo[4,3-c]quinazoline-3,5-dione]
IC50 [1]: 296 nM
IC50 [2, 3]: 8540 nM

O=c1[nH]nc2c3cc(F)c([N+](=O)[O-])cc3[nH]c(=O)n12 [Example 27, 9-Fluoro-8-nitro-2,3,5,6-tetrahydro-1,2,4-triazolo[4,3-c]quinazoline-3,5-dione]
IC50 [1]: 189 nM
IC50 [2, 3]: 360 nM

CN(C)c1cc2c(cc1[N+](=O)[O-])[nH]c(=O)n1c(=O)[nH]nc21 [Example 30, 9-Dimethylamino-8-nitro-2,3,5,6-tetrahydro-1,2,4-triazolo[4,3-c]quinazoline-3,5-dione]
IC50 [1]: 47 nM
IC50 [2, 3]: 342 nM

O=c1[nH]nc2c3cc(F)c(Cl)cc3[nH]c(=O)n12 [Example 10, 8-Chloro-9-fluoro-2,3,5,6-tetrahydro-1,2,4-triazolo[4,3-c]quinazoline-3,5-dione]
IC50 [1]: 1250 nM
IC50 [2, 3]: 202 nM

O=c1[nH]nc2c3ccc([N+](=O)[O-])cc3[nH]c(=O)n12 [Example 21, 8-Nitro-2,3,5,6-tetrahydro-1,2,4-triazolo[4,3-c]quinazoline-3,5-dione]
IC50 [1]: 243 nM
IC50 [2, 3]: 690 nM

O=c1nc2c3cc(Cl)c([N+](=O)[O-])cc3[nH]c(=O)n2[nH]1 [Example 26, 9-Chloro-8-nitro-1-yl-2,3,5,6-tetrahydro-[1,2,4]triazolo[1,5-c]quinazoline-2,5-dione sodium salt]
IC50 [1]: 82 nM
IC50 [2, 3]: 43 nM

O=c1[nH]nc2c3ccc(C(F)(F)F)cc3[nH]c(=O)n12 [Example 23, 8-Trifluoromethyl-2,3,5,6-tetrahydro-1,2,4-triazolo[4,3-c]quinazoline-3,5-dione]
IC50 [1]: 1010 nM
IC50 [2, 3]: 379 nM

O=c1[nH][nH]c2c1c(O)nc1cc(Cl)c(Cl)cc12 [Example 49, 7,8-Dichloro-4-hydroxy-2,3-dihydro-1H-pyrazolo[4,3-c]quinolin-3-one]
IC50 [1]: 1370 nM
IC50 [2, 3]: 73 nM

O=c1[nH]nc2c3cc(Cl)c(Cl)cc3[nH]c(=O)n12 [Example 11, 8,9-Dichloro-2,3,5,6-tetrahydro-1,2,4-triazolo[4,3-c]quinazoline-3,5-dione]
IC50 [1]: 660 nM
IC50 [2, 3]: 31 nM

O=c1[nH]oc2c1c(=O)[nH]c1cc([N+](=O)[O-])ccc12 [Example 55, 7-nitro-2,3,4,5-tetrahydro-isoxazol-[4,5-c]quinoline-3,4-dione]
IC50 [1]: 421 nM
IC50 [2, 3]: 459 nM

COc1ccc2c(c1)[nH]c(=O)n1c(=O)[nH]nc21 [Example 17, 8-Methoxy-2,3,5,6-tetrahydro-1,2,4-triazolo[4,3-c]quinazoline-3,5-dione]
IC50 [1]: 2370 nM
IC50 [2, 3]: 180 nM

O=c1[nH]nc2c3cc([N+](=O)[O-])c(Cl)cc3[nH]c(=O)n12 [Example 24, 8-Chloro-9-nitro-2,3,5,6-tetrahydro-1,2,4-triazolo[4,3-c]quinazoline-3,5-dione]
IC50 [1]: 362 nM
IC50 [2, 3]: 359 nM

O=c1[nH]ncc2c1c(O)nc1cc(Cl)ccc12 [Example 43, 8-Chloro-5-hydroxy-3,4-dihydro-pyridazino [4,5-c]quinolin-4-one]
IC50 [2, 3]: 909 nM

O=c1[nH]oc2c1c(=O)[nH]c1cc(Cl)ccc12 [Example 56, 7-Chloro-2,3,4,5-tetrahydro-isoxazolo[4,5-c]quinoline-3,4-dione]
IC50 [1]: 20 nM
IC50 [2, 3]: 266 nM

O=c1[nH]nc2c3ccc(F)cc3[nH]c(=O)n12 [Example 6, 8-Fluoro-2,3,5,6-tetrahydro-1,2,4-triazolo[4,3-c]quinazoline-3,5-dione]
IC50 [1]: 8160 nM
IC50 [2, 3]: 710 nM

O=c1nc2c3cc(-n4ccnc4)c([N+](=O)[O-])cc3[nH]c(=O)n2[nH]1 [Example 36, 9-Imidazol-1-yl-8-nitro-2,3,5,6-tetrahydro-[1,2,4]-triazolo[1,5-c]quinazoline-2,5-dione]
IC50 [1]: 16 nM
IC50 [2, 3]: 2560 nM

O=c1[nH]nc2c3ccc(I)cc3[nH]c(=O)n12 [Example 9, 8-Iodo-2,3,5,6-tetrahydro-1,2,4-triazolo[4,3-c]quinazoline-3,5-dione]
IC50 [1]: 1480 nM
IC50 [2, 3]: 189 nM

Nc1cc2c(cc1Cl)[nH]c(=O)n1c(=O)[nH]nc21 [Example 29, 9-amino-8-chloro-2,3,5,6-tetrahydro-1,2,4-triazolo[4,3-c]quinazoline-3,5-dione hydrochloride]
IC50 [1]: 8590 nM
IC50 [2, 3]: 1320 nM

O=c1[nH]nc2c3cc(Br)c([N+](=O)[O-])cc3[nH]c(=O)n12 [Example 38, 9-Bromo-8-nitro-2,3,5,6-tetrahydro-1,2,4-triazolo[4,3-c]quinazoline-3,5-dione]
IC50 [1]: 71 nM
IC50 [2, 3]: 68 nM

O=c1[nH][nH]c2c1c(O)nc1cc(Cl)ccc12 [Example 48, 7-Chloro-4-hydroxy-2,3-dihydro-1H-pyrazolo[4,3-c]quinolin-3-one]
IC50 [1]: 7310 nM
IC50 [2, 3]: 193 nM

O=c1nc2c3cc(N4CCCC4)c([N+](=O)[O-])cc3[nH]c(=O)n2[nH]1 [sodium salt]
IC50 [1]: 336 nM
IC50 [2, 3]: 3060 nM

Cc1cc2[nH]c(=O)n3c(=O)[nH]nc3c2cc1C [Example 14, 8,9-Dimethyl-2,3,5,6-tetrahydro-1,2,4-triazolo[4,3-c]quinazoline-3,5-dione]
IC50 [1]: 2310 nM
IC50 [2, 3]: 132 nM

O=c1[nH]nc2c3c(Cl)cc(Cl)cc3[nH]c(=O)n12 [Example 12, 8,10-Dichloro-2,3,5,6-tetrahydro-1,2,4-triazolo[4,3-c]quinazoline-3,5-dione]
IC50 [1]: 620 nM
IC50 [2, 3]: 79 nM

O=c1[nH]nc2c3ccc(Br)cc3[nH]c(=O)n12 [Example 8, 8-Bromo-2,3,5,6-tetrahydro-1,2,4-triazolo[4,3-c]quinazoline-3,5-dione]
IC50 [1]: 1170 nM
IC50 [2, 3]: 322 nM

O=c1[nH]nc2c3cc([N+](=O)[O-])c([N+](=O)[O-])cc3[nH]c(=O)n12 [Example 37, 8,9-Dinitro-2,3,5,6-tetrahydro-1,2,4-triazolo[4,3-c]quinazoline-3,5-dione]
IC50 [1]: 117 nM
IC50 [2]: 640 nM

O=c1[nH]nc2c3cc(N4CCCC4)c([N+](=O)[O-])cc3[nH]c(=O)n12 [Example 32, 8-Nitro-9-pyrrolidin-1-yl-2,3,5,6-tetrahydro-1,2,4-triazolo-[4,3-c]quinazoline-3,5-dione]
IC50 [1]: 163 nM
IC50 [2, 3]: 3600 nM

O=c1[nH]nc2c3cc(Cl)c([N+](=O)[O-])cc3[nH]c(=O)n12 [Example 25, 9-Chloro-8-nitro-2,3,5,6-tetrahydro-1,2,4-triazolo[4,3-c]quinazoline-3,5-dione]
IC50 [1]: 50 nM
IC50 [2, 3]: 50 nM
